From patent US20050031557A1, “Oral administration of beta-carotene, lycopene and lutein for human skin protection” (priority 1999, published 2005)

System: healthy skin of light type II
Experiment: Photoprotection study in volunteers with oral carotinoid supplementation over 12 weeks
Type: in vivo, human
Procedure: The carotinoid absorption and photoprotection studies were carried out using a panel of 36 volunteers with healthy skin of light type II (Fitzpatrick & Pathak test). The starting values for each volunteer were determined at the beginning of the 12-week study. An interim study was conducted after 6 weeks and the final study after 12 weeks. The volunteers were divided into three groups of twelve who received the following daily doses: • 1st group: 25 mg Betatene® (corresponds to 24 mg β-carotene) • 2nd group: 8.3 mg Betatene® (corresponds to 8 mg β-carotene), 8 mg lycopene, 8 mg lutein (Xangold®) • 3rd group: placebo capsules.
The carotinoids were administered in soft gelatine capsules with 140 mg soybean oil.
The concentration of β-carotene, lycopene and lutein in the skin was determined by reflection spectrometry which was carried out on an area of 1 cm^2 of the forehead, the back of the hand, the palm of the hand, the inside of the lower arm and the back. The change in color of the skin during supplementation was differentiated by a Minolta chromameter (L, a, b system) into reddening of the skin (a values), yellow component (b values) and lightness of the skin (L values). The concentration of β-carotene, lycopene and lutein in the serum was determined by high-pressure liquid chromatography (HPLC). […]

With `CC1=C(/C=C/C(C)=C/C=C/C(C)=C/C=C/C=C(C)/C=C/C=C(C)/C=C/C2=C(C)CCCC2(C)C)C(C)(C)CCC1` [β-carotene] the “photoprotection of the skin in relation to the blank value (in words)” value (12 weeks of daily oral dosing, versus placebo group 3) was “doubles the photoprotection of the skin” and the Photoprotection (average of 12 volunteers per group after 12 weeks of daily oral dosing in soft gelatine capsules with soybean oil, relative to blank value (group 3, no carotinoids = 100), group 1: 24 mg β-carotene, group 2: 8 mg each of β-carotene, lycopene, lutein) was 200 %-rel.
